Drawing on US10098878B2, “HIF-2α inhibitors for treating iron overload disorders” (The Board of Regents of the University of Texas System, priority 2014, dated 2018), this text covers IC50 for 36 molecules.

In one assay the target is T1, HIF-2α HIS TAG-PASB Domain (Homo sapiens, UniProt Q99814).
T1 construct: 100 nM HIF-2α HIS TAG-PASB Domain
T1 sequence (Q99814 240-350 limits assumed): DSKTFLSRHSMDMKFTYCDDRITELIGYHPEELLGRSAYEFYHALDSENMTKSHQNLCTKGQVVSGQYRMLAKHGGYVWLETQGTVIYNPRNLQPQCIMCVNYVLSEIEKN
As to the kind of experiment: HIF-2α Scintillation Proximity Assay (SPA). It is filed as binding. Conditions: 150 nM Compound 211 probe, 100 nM HIF-2α HIS TAG-PASB Domain; read-out: SPA IC50. On the procedure: The total assay volume was about 100 μL in the following configuration: 2 μL compound in 100% DMSO, 88 μL buffer with protein and probe and 10 μL of SPA beads. […] The percent inhibition was determined and IC50 values were calculated using the Dotmatics system based on the following equation: % inhibition=[(high control−sample)/(high control−low control)]×100.
Take `CC(C)(C)OC(=O)N[C@H]1C[C@@H](O)c2c(S(=O)(=O)C(F)(F)F)ccc(Oc3cc(F)cc(C#N)c3)c21` (relative stereo) [Compound 42, tert-butyl(cis-7-(3-cyano-5-fluorophenoxy)-3-hydroxy-4-((trifluoromethyl)sulfonyl)-2,3-dihydro-1H-inden-1-yl)carbamate]: the IC50 was found to be 2.2 µM. The same measure, in the same setting: for `N#CN=S(=O)(CF)c1ccc(Oc2cc(F)cc(C#N)c2)c2c1[C@H](O)[C@H](F)C2` (single isomer, unassigned) [Compound 41] the value was 0.13 µM. On the same count and under the same terms, as for `N#CN=S(=O)(CF)c1ccc(Oc2cc(F)cc(C#N)c2)c2c1[C@H](O)CC2` (single isomer, unassigned) [Compound 46], the figure is 7.2 µM. The same measure, in the same setting: as for `N#CN=S(=O)(CF)c1ccc(Oc2cc(F)cc(C#N)c2)c2c1[C@H](O)CC2` (single isomer, unassigned) [Compound 47], the figure is 1.4 µM; as for `N#CN=S(=O)(CF)c1ccc(Oc2cc(F)cc(C#N)c2)c2c1[C@H](O)C(F)(F)C2` (single isomer, unassigned) [Compound 50], 0.024 µM; as for `N#CN=S(=O)(c1ccc(Oc2cc(F)cc(C#N)c2)c2c1[C@H](O)[C@H](F)C2)C(F)F` (single isomer, unassigned) [Compound 61], 12.4 µM.

With `N#CN=S(=O)(c1ccc(Oc2cc(F)cc(C#N)c2)c2c1[C@H](O)[C@H](F)C2)C(F)F` (single isomer, unassigned) [Compound 63], the 50% inhibitory concentration (IC50) was 16.1 µM. Still for that read-out and setting: as for `C=CCN=S(=O)(c1ccc(Oc2cc(F)cc(C#N)c2)c2c1[C@H](O)C(F)(F)C2)C(F)(F)F` (single isomer, unassigned) [Compound 72], the figure is 0.068 µM. The same measure, in the same setting: for `CS(=O)(=NC#N)c1ccc(Oc2cc(F)cc(C#N)c2)c2c1[C@H](O)C(F)(F)[C@H]2F` (single isomer, unassigned) [Compound 82] the value was 2.4 µM; for `CS(=O)(=NC#N)c1ccc(Oc2cc(F)cc(C#N)c2)c2c1[C@@H](O)C(F)(F)[C@@H]2F` (single isomer, unassigned) [Compound 84], 1.57 µM. Still for that read-out and setting: for `CS(=O)(=NC#N)c1ccc(Oc2cc(F)cc(C#N)c2)c2c1[C@@H](O)C(F)(F)[C@@H]2F` (single isomer, unassigned) [Compound 86] the value was 9.9 µM. Turning to `N=S1(=O)c2ccc(Oc3cc(F)cc(F)c3)c(C(F)F)c2C(O)C1(F)F` (single isomer, unassigned) [Compound 163, 4-(difluoromethyl)-5-(3,5-difluorophenoxy)-2,2-difluoro-3-hydroxy-1-imino-2,3-dihydro-1H-1λ^4-benzo[b]thiophene 1-oxide], the 50% inhibitory concentration (IC50) was 0.059 µM. On the same count and under the same terms, as for `O=S(=O)(c1ccc(Oc2ccc3[nH]ncc3c2)c2c1C(O)C(F)(F)C2)C(F)(F)F` (stereo not drawn) [Compound 19, 4-((1H-Indazol-5-yl)oxy)-2,2-difluoro-7-((trifluoromethyl)sulfonyl)-2,3-dihydro-1H-inden-1-ol], the figure is 4.9 µM; as for `C=C1CC(O)c2c(S(C)(=O)=O)ccc(Oc3cc(F)cc(Cl)c3)c21` (stereo not drawn) [Compound 44, 4-(3-chloro-5-fluorophenoxy)-3-methylene-7-(methylsulfonyl)-2,3-dihydro-1H-inden-1-ol], 3.39 µM. Same read-out and setting: for `O=S(=O)(c1ccc(Oc2cc(F)cc(Cl)c2)c2c1[C@H](O)C[C@@H]2CO)C(F)(F)F` [Compound 45, (1R,3S)-4-(3-chloro-5-fluorophenoxy)-3-(hydroxymethyl)-7-((trifluoromethyl)sulfonyl)-2,3-dihydro-1H-inden-1-ol] the value was 0.73 µM. In the case of `CS(=O)(=O)N=S(=O)(CF)c1ccc(Oc2cc(F)cc(C#N)c2)c2c1[C@H](O)C(F)(F)C2` (stereo partly drawn) [Compound 48, N—(((S)-7-(3-cyano-5-fluorophenoxy)-2,2-difluoro-3-hydroxy-2,3-dihydro-1H-inden-4-yl)(fluoromethyl)(oxo)-λ^6-sulfanylidene)methanesulfonamide], the half-maximal inhibitory concentration (IC50) stood at 5.6 µM. Still for that read-out and setting: as for `CS(=O)(=O)c1ccc(Oc2cc(F)cc(C#N)c2)c2c1[C@H](O)CC2(F)F` [Compound 52, 3-[(1R)-3,3-difluoro-1-hydroxy-7-methylsulfonyl-indan-4-yl]oxy-5-fluoro-benzonitrile], the figure is 6.5 µM; as for `C[C@]1(F)Cc2c(Oc3cc(F)cc(C#N)c3)ccc(S(C)(=O)=O)c2[C@@H]1O` [Compound 62, 3-fluoro-5-(((1S,2S)-2-fluoro-1-hydroxy-2-methyl-7-(methylsulfonyl)-2,3-dihydro-1H-inden-4-yl)oxy)benzonitrile], 16.1 µM; as for `CS(=O)(=O)c1ccc(Oc2cc(F)cc(C#N)c2)c2c1[C@H](O)C(F)(F)[C@H]2O` [Compound 75, 3-[(1S,3S)-2,2-difluoro-1,3-dihydroxy-7-methylsulfonyl-indan-4-yl]oxy-5-fluoro-benzonitrile], 8.7 µM. The same measure, in the same setting: for `CS(=O)(=O)c1ccc(Oc2cncc(Br)c2)c2c1C(=O)C(F)(F)C2` [Compound 87, 4-((5-Bromopyridin-3-yl)oxy)-2,2-difluoro-7-(methylsulfonyl)-2,3-dihydro-1H-inden-1-one] the value was 5.3 µM; for `CS(=O)(=O)c1ccc(Oc2cncc(Br)c2)c2c1[C@H](O)[C@H](F)C2` [Compound 90, (1S,2R)-4-((5-Bromopyridin-3-yl)oxy)-2-fluoro-7-(methylsulfonyl)-2,3-dihydro-1H-inden-1-ol], 1.28 µM. For `CS(=O)(=O)c1ccc(Oc2cncc(F)c2)c2c1[C@H](O)C(F)(F)[C@H]2F` [Compound 94, (1S,3S)-2,2,3-trifluoro-4-((5-fluoropyridin-3-yl)oxy)-7-(methylsulfonyl)-2,3-dihydro-1H-inden-1-ol], the IC50 stood at 2.1 µM. Still for that read-out and setting: as for `CS(=O)(=O)c1ccc(Oc2cncc(Cl)c2)c2c1[C@H](O)C(F)(F)[C@H]2F` [Compound 96, (1S,3S)-4-((5-chloropyridin-3-yl)oxy)-2,2,3-trifluoro-7-(methylsulfonyl)-2,3-dihydro-1H-inden-1-ol], the figure is 2.3 µM; as for `N#Cc1cc(F)cc(Oc2ccc(S(N)(=O)=O)c3c2[C@@H](O)C(F)(F)[C@H]3O)c1` [Compound 101, (1R,3S)-7-(3-cyano-5-fluoro-phenoxy)-2,2-difluoro-1,3-dihydroxy-indane-4-sulfonamide], 3.7 µM. The same measure, in the same setting: as for `CS(=O)(=O)c1ccc(Oc2cncc(C#N)c2)c2c1[C@H](O)C(F)(F)[C@H]2F` [Compound 107, 5-(((1S,3S)-2,2,3-trifluoro-1-hydroxy-7-(methylsulfonyl)-2,3-dihydro-1H-inden-4-yl)oxy)nicotinonitrile], the figure is 23.9 µM; as for `N#Cc1cncc(Oc2ccc(S(=O)(=O)CF)c3c2[C@H](F)C(F)(F)[C@H]3O)c1` [Compound 109, 5-(((1S,3S)-2,2,3-trifluoro-7-((fluoromethyl)sulfonyl)-1-hydroxy-2,3-dihydro-1H-inden-4-yl)oxy)nicotinonitrile], 2.2 µM.

For the molecule `O=S1(=O)CCc2c1ccc(Oc1cc(F)cc(Cl)c1)c2Br` [Compound 114, 4-Bromo-5-(3-chloro-5-fluorophenoxy)-2,3-dihydrobenzo[b]thiophene 1,1-dioxide], the IC50 was found to be 4.4 µM. Consider `N#Cc1c(Oc2cc(F)cc(Cl)c2)ccc2c1CCS2(=O)=O` [Compound 115, 5-(3-Chloro-5-fluorophenoxy)-2,3-dihydrobenzo[b]thiophene-4-carbonitrile 1,1-dioxide], for which the 50% inhibitory concentration (IC50) amounted to 4.9 µM.

As to `O=C1c2c(ccc(Oc3cc(F)cc(Cl)c3)c2Br)S(=O)(=O)C1(F)F` [Compound 118, 4-Bromo-5-(3-chloro-5-fluorophenoxy)-2,2-difluorobenzo[b]thiophen-3(2H)-one 1,1-dioxide], the IC50 worked out at 1.4 µM.

On to `NC1c2c(ccc(Oc3cc(F)cc(F)c3)c2C(F)F)S(=O)(=O)C1F` (stereo not drawn) [Compound 130, 3-amino-4-(difluoromethyl)-5-(3,5-difluorophenoxy)-2-fluoro-2,3-dihydrobenzo[b]thiophene 1,1-dioxide], for which the half-maximal inhibitory concentration (IC50) was 1.5 µM. Turning to `N#Cc1cc(F)cc(Oc2ccc3c(c2C(F)F)C(=N)C(F)S3(=O)=O)c1` (stereo not drawn) [Compound 137, 3-((4-(difluoromethyl)-2-fluoro-3-imino-1,1-dioxido-2,3-dihydrobenzo[b]thiophen-5-yl)oxy)-5-fluorobenzonitrile], the IC50 is 5.8 µM. The same measure, in the same setting: for `COCCNC1c2c(ccc(Oc3cc(F)cc(C#N)c3)c2C(F)F)S(=O)(=O)C1(F)F` (stereo not drawn) [Compound 146, 3-((4-(Difluoromethyl)-2,2-difluoro-3-((2-methoxyethyl)amino)-1,1-dioxido-2,3-dihydrobenzo[b]thiophen-5-yl)oxy)-5-fluorobenzonitrile] the value was 2.89 µM; for `N#Cc1cc(F)cc(Oc2ccc3c(c2C(F)F)[C@H](N)C(F)(F)S3(=O)=O)c1` [Compound 148, (S)-3-((3-Amino-4-(difluoromethyl)-2,2-difluoro-1,1-dioxido-2,3-dihydrobenzo[b]thiophen-5-yl)oxy)-5-fluorobenzonitrile], 13.4 µM. On the same count and under the same terms, as for `Cc1cc(C#N)cc(Oc2ccc3c(c2C(F)F)C(=O)C(F)(F)S3(=O)=O)c1` [Compound 155, 3-((4-(Difluoromethyl)-2,2-difluoro-1,1-dioxido-3-oxo-2,3-dihydrobenzo[b]thiophen-5-yl)oxy)-5-methylbenzonitrile], the figure is 18.7 µM. The same measure, in the same setting: for `N#Cc1cc(F)cc(Oc2ccc3c(c2Br)C(=O)C(F)(F)S3(=O)=O)c1` [Compound 157, 3-((4-Bromo-2,2-difluoro-1,1-dioxido-3-oxo-2,3-dihydrobenzo[b]thiophen-5-yl)oxy)-5-fluorobenzonitrile] the value was 9.7 µM.

The same assay, now with this note: SPA IC50, 150 nM Compound 211 probe, 100 nM HIF-2α HIS TAG-PASB Domain.
As for `O=S1(=O)c2ccc(Oc3cc(F)cc(Cl)c3)cc2C(O)C1(F)F` (stereo not drawn) [Compound 126, 5-(3-Chloro-5-fluorophenoxy)-2,2-difluoro-3-hydroxy-2,3-dihydrobenzo[b]thiophene 1,1-dioxide], it took 1.88 µM to reach half-maximal inhibition (IC50).
